Here are results for 5 molecules from US9346777B2, “Antiprotozoal compounds” (MediSynergics, LLC, priority 2012, dated 2016).

In this assay the test system is T. brucei brucei. The assay can be described thus: T. brucei brucei growth inhibition assay (bloodstream forms, CellTiter-Glo ATP-bioluminescence). The conditions noted are these: Trypanosoma brucei; bloodstream forms of T. brucei brucei clone 427-221a; 40 hours at 37° C.; final DMSO 0.5%; 95% confidence intervals in parentheses. Format: cell-based. The procedure: The growth inhibition assay for T. brucei brucei was conducted as described previously by Z. B. Mackey et al (Kenny K. H. Ang, Joseline Ratnam, Jiri Gut, Jennifer Legac, Elizabeth Hansell, Zachary B. Mackey, Katarzyna M. Skrzypczynska, Anjan Debnath, Juan C. Engel, Philip J. Rosenthal, James H. McKerrow, Michelle R. Arkin, Adam R. Renslo (2011) “Mining a Cathepsin Inhibitor Library for New Antiparasitic Drug Leads”, PLoS Neglected Tropical Diseases, 5(5):e1023). Bloodstream forms of the monomorphic T. brucei brucei clone 427-221a were grown in complete HMI-9 medium containing 10% FBS, 10% Serum Plus medium (Sigma Inc., St. Louis, Mo., USA), 50 U/mL penicillin and […] (Invitrogen) at 37° C. under a humidified atmosphere and 5% CO2. Inhibitor stocks were prepared in 100% DMSO and screened at […] for percent inhibition values or serially diluted from […] in 10% DMSO for IC50 determinations. […] of diluted parasites ([…]) in sterile Greiner 96-well flat white opaque culture plates such that the final DMSO concentration was 0.5%. The 0% inhibition control wells contained 0.5% DMSO while 100% inhibition control wells contained […] thimerosal (Sigma). After compound addition, plates were incubated for 40 hours at 37° C. At the end of the incubation period, […] of CellTiter-Glo™ reagent (Promega Inc., Madison, Wis., USA) was added to each well and plates were placed on an orbital shaker at room temperature for 2 min to induce lysis. After an additional 10 min of incubation without shaking to stabilize the signal, the ATP-bioluminescence of each well was determined using an Analyst HT plate reader (Molecular Devices, Sunnyvale, Calif., USA). Raw values were converted to log 10 and percentage inhibition calculated relative to the controls. IC50 curve fittings were performed with Prism 4 software as above. Pentamidine was used as a comparator in the assay.
Background: Cellular ATP, detected with luciferase, serves as a proxy for viable cell number.

Each structure is given as a SMILES string.

By IC50 is commonly meant the point on the concentration scale where inhibition reaches its midpoint. In the case of `CN(C)CCCC1(c2ccc(F)cc2)OCc2cc(C(=N)NCc3ccccc3)ccc21` (centres unmarked) [Example 4, N-benzyl-1-[3-(dimethylamino)propyl]-1-(4-fluorophenyl)-1,3-dihydro-2-benzofuran-5-carboximidamide], the IC50 stood at 8.8 µM.
`CN(C)CCCC1(c2ccc(F)cc2)OCc2cc(C(=N)N)ccc21` (centres unmarked) [Example 1, 1-[3-(dimethylamino)propyl]-1-(4-fluorophenyl)-1,3-dihydro-2-benzofuran-5-carboximidamide]: the IC50 was 32 µM.
As for `CN(C)CCCC1(c2ccc(F)cc2)OCc2cc(C(=N)N3CCOCC3)ccc21` (centres unmarked) [Example 5, 1-[1-[3-(dimethylamino)propyl]-1-(4-fluorophenyl)-1,3-dihydro-2-benzofuran-5-yl]-1-(morpholin-4-yl)methan-imine], the IC50 stood at 37 µM.
On to `CN(C)CCCC1(c2ccc(F)cc2)OCc2cc(-c3ncc[nH]3)ccc21` (centres unmarked) [Example 7], for which the IC50 worked out at 1.4 µM.
`CN(C)CCCC1(c2ccc(F)cc2)OCc2cc(C(=N)N3CCCC3)ccc21` (centres unmarked) [Example 6, 1-[1-[3-(dimethylamino)propyl]-1-(4-fluorophenyl)-1,3-dihydro-2-benzofuran-5-yl]-1-(pyrrolidin-1-yl)methan-imine]: the IC50 turned out to be 24 µM.
